Reference: patent publication US20110269700A1, “GLUCOSIDE DERIVATIVES AND USES THEREOF” (NOVARTIS AG, priority 2008, published 2011)

Key:
[1] = molecular target: T1, human sodium glucose cotransporter 2 (Homo sapiens, UniProt P31639); experiment: SGLT2 assay: 14C-AMG uptake in CHO-hSGLT2 or HEK-hSGLT2 cells; type: cell-based; conditions: n = 1-4
T1 construct: expressed in transfected cells; host or cells: CHO-K1 (ATCC CCL-61) or HEK293 (ATCC CRL-1573), stably transfected with pZeoSV
T1 sequence (P31639 1-672): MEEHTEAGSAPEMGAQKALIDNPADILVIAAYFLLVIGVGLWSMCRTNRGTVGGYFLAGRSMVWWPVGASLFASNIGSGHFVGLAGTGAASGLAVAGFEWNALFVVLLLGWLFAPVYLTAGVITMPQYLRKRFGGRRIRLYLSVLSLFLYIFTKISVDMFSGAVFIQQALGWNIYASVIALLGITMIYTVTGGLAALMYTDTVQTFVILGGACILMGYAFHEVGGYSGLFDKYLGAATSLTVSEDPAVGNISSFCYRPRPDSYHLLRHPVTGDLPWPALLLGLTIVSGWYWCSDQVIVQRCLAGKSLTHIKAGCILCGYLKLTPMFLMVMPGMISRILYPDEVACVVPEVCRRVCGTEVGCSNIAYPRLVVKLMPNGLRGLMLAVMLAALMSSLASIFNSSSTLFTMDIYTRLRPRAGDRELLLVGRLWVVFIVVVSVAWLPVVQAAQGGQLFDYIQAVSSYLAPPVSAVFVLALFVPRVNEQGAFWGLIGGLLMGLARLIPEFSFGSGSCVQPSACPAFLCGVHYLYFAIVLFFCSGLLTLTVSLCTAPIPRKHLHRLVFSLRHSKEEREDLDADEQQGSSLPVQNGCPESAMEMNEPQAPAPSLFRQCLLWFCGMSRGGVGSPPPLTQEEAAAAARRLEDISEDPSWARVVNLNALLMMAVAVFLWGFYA
Procedure: These cell lines transport ^14C-labeled alpha-methyl-glucopyranoside (^14C-AMG, Amersham) into the interior of the cell in sodium-dependent manner.
The SGLT-2 assay is carried out as follows: CHO-hSGLT2 cells are cultivated in Ham's F12 Medium (BioWhittaker) with 10% fetal calf serum and 250 μg/mL zeocin (Invitrogen), and HEK293-hSGLT2 cells are cultivated in DMEM medium with 10% fetal calf serum and 250 μg/mL zeocin (Invitrogen). The cells are detached from the culture flasks by washing twice with PBS and subsequently treating with trypsin/EDTA. After the addition of cell culture medium the cells are centrifuged, resuspended in culture medium and counted in a Casy cell counter. Then 40,000 cells per well are seeded into a white, 96-well plate coated with poly-D-lysine and incubated overnight at 37° C., 5% CO2. The cells are washed twice with 250 μl of assay buffer (Hanks Balanced Salt Solution, 137 mM NaCl, 5.4 mM KCl, 2.8 mM CaCl2, 1.2 mM MgSO4 and 10 mM HEPES (pH 7.4), 50 μg/mL of gentamycin). 250 μl of assay buffer and 5 μl of test compound are then added to each well and the plate is incubated for a further 15 minutes in the incubator. 5 μl of 10% DMSO are used as the negative control. The reaction is started by adding 5 μl of 14 C-AMG (0.05 μCi) to each well. After 2 hours' incubation at 37° C., 5% CO2, the cells are washed again with 250 μl of PBS ([…]) and then lysed by the addition of 25 μl of 0.1 N NaOH (5 min. at 37° C.). 200 μl of MicroScint20 (Packard) are added to each well and incubation is continued for a further 20 min at 37° C. After this incubation the radioactivity of the 14 C-AMG absorbed is measured in a Topcount (Packard) using a 14 C scintillation program.

[2] = molecular target: T2, human SGLT1 (Homo sapiens, UniProt P13866); experiment: SGLT1 assay: 14C-AMG uptake in CHO-K1 or HEK293 cells expressing hSGLT1; type: cell-based; conditions: n = 1-4
T2 construct: expressed in transfected cells; host or cells: CHO-K1 or HEK293
T2 sequence (P13866 1-664): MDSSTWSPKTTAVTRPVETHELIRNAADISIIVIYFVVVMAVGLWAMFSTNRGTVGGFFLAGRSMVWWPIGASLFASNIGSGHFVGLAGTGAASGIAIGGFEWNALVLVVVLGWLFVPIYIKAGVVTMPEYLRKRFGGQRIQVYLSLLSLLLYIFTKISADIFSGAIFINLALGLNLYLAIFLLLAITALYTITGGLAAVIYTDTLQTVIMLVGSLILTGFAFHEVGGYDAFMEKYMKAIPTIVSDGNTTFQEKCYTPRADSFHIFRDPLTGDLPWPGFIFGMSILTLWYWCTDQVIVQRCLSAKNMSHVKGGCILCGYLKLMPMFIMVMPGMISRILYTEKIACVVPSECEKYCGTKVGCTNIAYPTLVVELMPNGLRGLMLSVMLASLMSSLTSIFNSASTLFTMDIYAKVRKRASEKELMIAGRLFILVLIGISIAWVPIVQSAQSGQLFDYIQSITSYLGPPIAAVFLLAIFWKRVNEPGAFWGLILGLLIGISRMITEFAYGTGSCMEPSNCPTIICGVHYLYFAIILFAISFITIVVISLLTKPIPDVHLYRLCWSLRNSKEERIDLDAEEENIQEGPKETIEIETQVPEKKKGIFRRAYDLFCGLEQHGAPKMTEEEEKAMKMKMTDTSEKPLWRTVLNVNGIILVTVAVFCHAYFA
Procedure: To determine human SGLT1 inhibitory activity, an analogous test was set up in which the cDNA for hSGLTI (Genbank Ace. No. NM000343) instead of hSGLT2 cDNA is expressed in CHO-K1 or HEK293 cells. The uptake assay buffer in the case of the hSGLT1 assay contains 10 mM HEPES, 5 mM Tris, 140 mM NaCl, 2 mM KCl, 1 mM CaCl2, and 1 mM MgCl2, pH 7.4 containing 0.5 mM of α-methyl-D-glucopyranoside (AMG), 10 μM of [^14C]-α-methyl-D-glucopyranoside and different inhibitor concentrations.

| SMILES | IC50 [1] | IC50 [2] |
| --- | --- | --- |
| CCOc1ccc(Cc2cc([C@@H]3O[C@H](CN(C)c4cccc(C(=O)N5CCCC5)c4)[C@@H](O)[C@H](O)[C@H]3O)ccc2Cl)cc1 [Example 37, [3-({(2R,3S,4R,5R,6S)-6-[4-Chloro-3-(4-ethoxy-benzyl)-phenyl]-3,4,5-trihydroxy-tetrahydro-pyran-2-ylmethyl}-methyl-amino)-phenyl]-pyrrolidin-1-yl-methanone] | 10 nM | 280 nM |
| CCOc1ccc(Cc2cc([C@@H]3O[C@H](Cn4cc(CO)nn4)[C@@H](O)[C@H](O)[C@H]3O)ccc2Cl)cc1 [Example 10, (2S, 3R, 4R, 5S, 6R)-2-[4-Chloro-3-(4-ethoxy-benzyl)-phenyl]-6-(4-hydroxymethyl-[1,2,3]triazol-1-ylmethyl)-tetrahydro-pyran-3,4,5-triol] | 50 nM | 32000 nM |
| CCOc1ccc(Cc2cc([C@@H]3O[C@H](Cn4cc(C(N)=O)nn4)[C@@H](O)[C@H](O)[C@H]3O)ccc2Cl)cc1 [Example 12, 1-{(2R,3S,4R,5R,6S)-6-[4-Chloro-3-(4-ethoxy-benzyl)-phenyl]-3,4,5-trihydroxy-tetrahydro-pyran-2-ylmethyl}-1H-[1,2,3]triazole-4-carboxylic acid amide] | 81 nM |  |
| CCOc1ccc(Cc2cc([C@@H]3O[C@H](CNc4cccc(NC(C)=O)c4)[C@@H](O)[C@H](O)[C@H]3O)ccc2Cl)cc1 [Example 34, N-[3-({(2R,3S,4R,5R,6S)-6-[4-Chloro-3-(4-ethoxy-benzyl)-phenyl]-3,4,5-trihydroxy-tetrahydro-pyran-2-ylmethyl}-amino)-phenyl]-acetamide] | 23 nM | 1500 nM |
| CCOc1ccc(Cc2cc([C@@H]3O[C@H](Cn4nncc4CO)[C@@H](O)[C@H](O)[C@H]3O)ccc2Cl)cc1 [Example 9, (2S, 3R, 4R, 5S, 6R)-2-[4-Chloro-3-(4-ethoxy-benzyl)-phenyl]-6-(5-hydroxymethyl-[1,2,3]triazol-1-ylmethyl)-tetrahydro-pyran-3,4,5-triol] | 94 nM | > 10000 nM |
